Reference: patent publication US12655116B2, “Substituted isophthalic acid diamides” (Bayer Aktiengesellschaft, priority 2020, dated 2026)

Legend:
ABUTH [1] = assay: Pre-emergence herbicidal action against ABUTH; assay type: in vivo, Abutilon theophrasti; conditions: Abutilon theophrasti, 504 h; for pest or weed control at 80 g/ha: scored visually after 3 weeks vs untreated controls (100% = plants have died, 0% = like control plants); for pest or weed control at 20 g/ha: dosage 20 g/ha, scored visually after 3 weeks vs untreated controls, 100% = plants have died, 0% = like control plants, read-out: Pre-emergence action against ABUTH (herbicidal activity in percent)
Procedure, shortened: (§1)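 Visual rating at 3 weeks vs untreated pots; 0–100% scale, 100% = plants died. Treatment: aqueous WP/EC spray onto covering soil, 600–800 l/ha, 0.2% wetter, seeds in sandy loam.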

ALOMY [2] = assay: Pre-emergence herbicidal action against ALOMY; assay type: in vivo, Alopecurus myosuroides; conditions: Alopecurus myosuroides, 504 h, pre-emergence; for pest or weed control at 80 g/ha: scored visually after 3 weeks vs untreated controls (100% = plants have died, 0% = like control plants); for pest or weed control at 20 g/ha: scored visually after 3 weeks, 100% = plants have died, 0% = like control plants
Procedure, shortened: as §1

AMARE [3] = assay: Pre-emergence herbicidal action against AMARE; assay type: in vivo, Amaranthus retroflexus; conditions: Amaranthus retroflexus, 504 h, scored visually after 3 weeks vs untreated controls, 100% = plants have died, 0% = like control plants
Procedure, shortened: as §1

AVEFA [4] = assay: Pre-emergence herbicidal action against AVEFA; assay type: in vivo, Avena fatua; conditions: Avena fatua, 504 h; 80 g/ha, pre-emergence
Procedure, shortened: as §1

ECHCG [5] = assay: Pre-emergence herbicidal action against ECHCG; assay type: in vivo, Echinochloa crus-galli; conditions: Echinochloa crus-galli, 504 h
Procedure, shortened: as §1

LOLRI = assay: Pre-emergence herbicidal action against LOLRI; assay type: in vivo, Lolium rigidum; conditions: Lolium rigidum, 504 h, 80 g/ha
Procedure, shortened: as §1

MATIN [6] = assay: Pre-emergence herbicidal action against MATIN; assay type: in vivo, Matricaria inodora; conditions: Tripleurospermum inodorum, 504 h; for pest or weed control at 20 g/ha: dosage 20 g/ha; for pest or weed control at 80 g/ha: dosage 80 g/ha
Procedure, shortened: as §1

PHBPU [7] = assay: Pre-emergence herbicidal action against PHBPU; assay type: in vivo, Pharbitis purpurea; conditions: Ipomoea purpurea, 504 h; for pest or weed control at 80 g/ha: dosage 80 g/ha
Procedure, shortened: as §1

POLCO = assay: Pre-emergence herbicidal action against POLCO; assay type: in vivo, Polygonum convolvulus; conditions: Fallopia convolvulus, 504 h; for pest or weed control at 80 g/ha: dosage 80 g/ha
Procedure, shortened: as §1

SETVI [8] = assay: Pre-emergence herbicidal action against SETVI; assay type: in vivo, Setaria viridis; conditions: Setaria viridis, 504 h, dosage 80 g/ha
Procedure, shortened: as §1

VERPE [9] = assay: Pre-emergence herbicidal action against VERPE; assay type: in vivo, Veronica persica; conditions: Veronica persica, 504 h, dosage 80 g/ha
Procedure, shortened: as §1

VIOTR [10] = assay: Pre-emergence herbicidal action against VIOTR; assay type: in vivo, Viola tricolor; conditions: Viola tricolor, 504 h; for pest or weed control at 20 g/ha: dosage 20 g/ha; for pest or weed control at 80 g/ha: dosage 80 g/ha
Procedure, shortened: as §1

DIGSA [11] = assay: Pre-emergence herbicidal action against DIGSA; assay type: in vivo, Digitaria sanguinalis; conditions: Digitaria sanguinalis, 504 h; for pest or weed control at 20 g/ha: dosage 20 g/ha; for pest or weed control at 80 g/ha: dosage 80 g/ha
Procedure, shortened: as §1

ALOMY [12] = assay: Post-emergence herbicidal action against ALOMY; assay type: in vivo, Alopecurus myosuroides; conditions: Alopecurus myosuroides, 504 h, dosage 20 g/ha, visual assessment about 3 weeks after treatment vs untreated controls
Procedure, shortened: (§2)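 Greenhouse pot plants in sandy loam were sprayed at the one-leaf stage, 2 to 3 weeks after sowing, with WP or EC formulations as aqueous suspension or emulsion (600 to 800 l/ha water, 0.2% wetting agent). About 3 weeks later, damage was scored visually against untreated controls as % action (100% = dead, 0% = like control).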

AMARE [13] = assay: Post-emergence herbicidal action against AMARE; assay type: in vivo, Amaranthus retroflexus; conditions: Amaranthus retroflexus, 504 h, 20 g/ha, visual assessment about 3 weeks after treatment, 100% = plants have died, 0% = like control plants
Procedure, shortened: as §2

AVEFA [14] = assay: Post-emergence herbicidal action against AVEFA; assay type: in vivo, Avena fatua; conditions: Avena fatua, 504 h, 20 g/ha, visual assessment about 3 weeks after treatment, 100% = plants have died, 0% = like control plants
Procedure, shortened: as §2

ECHCG [15] = assay: Post-emergence herbicidal action against ECHCG; assay type: in vivo, Echinochloa crus-galli; conditions: Echinochloa crus-galli, 504 h
Procedure, shortened: as §2

MATIN [16] = assay: Post-emergence herbicidal action against MATIN; assay type: in vivo, Matricaria inodora; conditions: Tripleurospermum inodorum, 504 h
Procedure, shortened: as §2

PHBPU [17] = assay: Post-emergence herbicidal action against PHBPU; assay type: in vivo, Pharbitis purpurea; conditions: Ipomoea purpurea, 504 h; for pest or weed control at 5 g/ha: dosage 5 g/ha; for pest or weed control at 20 g/ha: dosage 20 g/ha
Procedure, shortened: as §2

SETVI [18] = assay: Post-emergence herbicidal action against SETVI; assay type: in vivo, Setaria viridis; conditions: Setaria viridis, 504 h, dosage 20 g/ha
Procedure, shortened: as §2

ABUTH [19] = assay: Post-emergence herbicidal action against ABUTH; assay type: in vivo, Abutilon theophrasti; conditions: Abutilon theophrasti, 504 h, visual assessment about 3 weeks after treatment vs untreated controls
Procedure, shortened: as §2

VERPE [20] = assay: Post-emergence herbicidal action against VERPE; assay type: in vivo, Veronica persica; conditions: Veronica persica, 504 h, 20 g/ha
Procedure, shortened: as §2

VIOTR [21] = assay: Post-emergence herbicidal action against VIOTR; assay type: in vivo, Viola tricolor; conditions: Viola tricolor, 504 h
Procedure, shortened: as §2

DIGSA [22] = assay: Post-emergence herbicidal action against DIGSA; assay type: in vivo, Digitaria sanguinalis; conditions: Digitaria sanguinalis, 504 h
Procedure, shortened: as §2

CC(C)NC(=O)c1c(C(F)(F)F)ccc(C(=O)Nc2nnnn2C)c1Cl [Example 1-137]
pest or weed control at 80 g/ha (ABUTH [1]): 100% | pest or weed control at 20 g/ha (ABUTH [1]): 100% | pest or weed control at 80 g/ha (ALOMY [2]): 90% | pest or weed control at 20 g/ha (ALOMY [2]): 90% | pest or weed control at 20 g/ha (AMARE [3]): 100% | pest or weed control at 80 g/ha (AMARE [3]): 100% | pest or weed control at 80 g/ha (AVEFA [4]): 90% | pest or weed control at 20 g/ha (ECHCG [5]): 80% | pest or weed control at 80 g/ha (ECHCG [5]): 100% | pest or weed control at 80 g/ha (LOLRI): 90% | pest or weed control at 20 g/ha (MATIN [6]): 100% | pest or weed control at 80 g/ha (MATIN [6]): 100% | pest or weed control at 20 g/ha (PHBPU [7]; dosage 20 g/ha): 80% | pest or weed control at 80 g/ha (PHBPU [7]): 90% | pest or weed control at 20 g/ha (POLCO; dosage 20 g/ha): 80% | pest or weed control at 80 g/ha (POLCO): 100% | pest or weed control at 80 g/ha (SETVI [8]): 100% | pest or weed control at 80 g/ha (VERPE [9]): 90% | pest or weed control at 20 g/ha (VIOTR [10]): 90% | pest or weed control at 80 g/ha (VIOTR [10]): 100% | pest or weed control at 20 g/ha (DIGSA [11]): 100% | pest or weed control at 80 g/ha (DIGSA [11]): 100% | pest or weed control at 20 g/ha (ALOMY [12]): 90% | pest or weed control at 20 g/ha (AMARE [13]): 90% | pest or weed control at 20 g/ha (AVEFA [14]): 80% | pest or weed control at 5 g/ha (ECHCG [15]; dosage 5 g/ha): 90% | pest or weed control at 20 g/ha (ECHCG [15]; dosage 20 g/ha): 90% | pest or weed control at 5 g/ha (MATIN [16]; dosage 5 g/ha): 80% | pest or weed control at 20 g/ha (MATIN [16]; dosage 20 g/ha): 80% | pest or weed control at 5 g/ha (PHBPU [17]): 80% | pest or weed control at 20 g/ha (PHBPU [17]): 80% | pest or weed control at 20 g/ha (SETVI [18]): 80%

Cn1nnnc1NC(=O)c1ccc(C(F)F)c(C(=O)NC2CC2)c1Br [Example 1-227]
pest or weed control at 80 g/ha (ABUTH [1]): 100% | pest or weed control at 20 g/ha (ABUTH [1]): 100% | pest or weed control at 80 g/ha (ALOMY [2]): 100% | pest or weed control at 20 g/ha (ALOMY [2]): 80% | pest or weed control at 20 g/ha (AMARE [3]): 100% | pest or weed control at 80 g/ha (AMARE [3]): 100% | pest or weed control at 80 g/ha (AVEFA [4]): 90% | pest or weed control at 20 g/ha (ECHCG [5]): 80% | pest or weed control at 80 g/ha (ECHCG [5]): 90% | pest or weed control at 80 g/ha (LOLRI): 90% | pest or weed control at 20 g/ha (MATIN [6]): 80% | pest or weed control at 80 g/ha (MATIN [6]): 100% | pest or weed control at 80 g/ha (PHBPU [7]): 80% | pest or weed control at 80 g/ha (POLCO): 90% | pest or weed control at 80 g/ha (SETVI [8]): 100% | pest or weed control at 80 g/ha (VERPE [9]): 100% | pest or weed control at 20 g/ha (VIOTR [10]): 100% | pest or weed control at 80 g/ha (VIOTR [10]): 100% | pest or weed control at 20 g/ha (DIGSA [11]): 100% | pest or weed control at 80 g/ha (DIGSA [11]): 100% | pest or weed control at 5 g/ha (ABUTH [19]; dosage 5 g/ha): 100% | pest or weed control at 20 g/ha (ABUTH [19]; dosage 20 g/ha): 100% | pest or weed control at 20 g/ha (AMARE [13]): 100% | pest or weed control at 20 g/ha (AVEFA [14]): 80% | pest or weed control at 5 g/ha (PHBPU [17]): 80% | pest or weed control at 20 g/ha (PHBPU [17]): 90% | pest or weed control at 20 g/ha (VERPE [20]): 80% | pest or weed control at 5 g/ha (VIOTR [21]; 5 g/ha): 100% | pest or weed control at 20 g/ha (VIOTR [21]; 20 g/ha): 100% | pest or weed control at 5 g/ha (DIGSA [22]; 5 g/ha): 100% | pest or weed control at 20 g/ha (DIGSA [22]; 20 g/ha): 100%
